≈ marks a conversion by molar mass, not a printed value. One block for each compound: values may come before it.
How the values were obtained:
[1] = Intrinsic clearance in rat liver microsomes; format: ADME; conditions: read-out: CLH
CHO = assay: Selectivity index, ratio of Ki for human OX2 receptor expressed on CHO cell membrane to Ki for Ile408-Val variant human OX1 receptor expressed on CHO cell membrane; format: cell-based
[2] = Oral bioavailability in rat at 10 mg/kg; format: ADME, organism-based; conditions: in vivo
[3] = Clearance in rat at 2 mg/kg, iv; format: ADME, organism-based; conditions: in vivo
[4] = Drug metabolism in rat liver microsomes assessed as oxidation of banzamide; format: ADME
Orexin receptor type 2 [5] = target: T1, Orexin receptor type 2 (Homo sapiens, UniProt O43614); assay: Displacement of (2S)-N-(2-pyrrol-1-ylphenyl)-1-[2-[1-(tritritiomethyl)benzimidazol-2-yl]sulfanylacetyl]pyrrolidine-2-carboxamide from human OX2 receptor expressed on CHO cell membrane measured after 3 hrs by TopCount method; format: cell membranes
T1 sequence (O43614 whole entry): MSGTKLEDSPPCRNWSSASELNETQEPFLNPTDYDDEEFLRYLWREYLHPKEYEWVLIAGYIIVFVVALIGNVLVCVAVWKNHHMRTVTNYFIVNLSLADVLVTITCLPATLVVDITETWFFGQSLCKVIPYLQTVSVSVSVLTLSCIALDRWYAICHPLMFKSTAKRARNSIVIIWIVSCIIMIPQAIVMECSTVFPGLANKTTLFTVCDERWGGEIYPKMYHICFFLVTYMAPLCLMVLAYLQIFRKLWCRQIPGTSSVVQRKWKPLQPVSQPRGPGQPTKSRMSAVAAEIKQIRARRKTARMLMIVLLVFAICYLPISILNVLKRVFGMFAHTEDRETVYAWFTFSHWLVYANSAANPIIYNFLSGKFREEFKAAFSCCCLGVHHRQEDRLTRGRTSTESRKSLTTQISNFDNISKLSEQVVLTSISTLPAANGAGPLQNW

[6] = Displacement of (2S)-N-(2-phenylphenyl)-1-[2-[1-(tritritiomethyl)benzimidazol-2-yl]sulfanylacetyl]pyrrolidine-2-carboxamide from human OX1 receptor Ile408-Val mutant expressed on CHO cell membrane measured after 3 hrs by TopCount method; format: cell membranes
[7] = Solubility of the compound; format: physicochemical
[8] = target: T2, Orexin/Hypocretin receptor type 1 (Homo sapiens) (UniProt O43613); assay: Potency index, ratio of PE8 Ki to compound Ki for human OX1 receptor
T2 sequence (whole entry): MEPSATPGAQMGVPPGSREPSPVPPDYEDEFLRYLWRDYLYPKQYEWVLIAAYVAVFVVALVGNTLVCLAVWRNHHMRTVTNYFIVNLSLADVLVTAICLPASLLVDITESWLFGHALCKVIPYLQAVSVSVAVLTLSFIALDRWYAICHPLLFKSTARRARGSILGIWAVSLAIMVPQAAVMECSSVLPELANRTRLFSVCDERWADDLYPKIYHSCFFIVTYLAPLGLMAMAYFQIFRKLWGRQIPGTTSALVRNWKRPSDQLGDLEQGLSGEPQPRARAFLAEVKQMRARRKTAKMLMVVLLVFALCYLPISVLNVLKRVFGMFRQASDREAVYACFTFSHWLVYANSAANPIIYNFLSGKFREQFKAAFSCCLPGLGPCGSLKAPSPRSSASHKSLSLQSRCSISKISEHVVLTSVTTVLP

[9] = target: Voltage-dependent L-type calcium channel subunit alpha-1C (Homo sapiens, UniProt Q13936); assay: Inhibition of Cav1.2 (unknown origin)
Chain of Voltage-dependent L-type calcium channel subunit alpha-1C (Q13936 whole entry): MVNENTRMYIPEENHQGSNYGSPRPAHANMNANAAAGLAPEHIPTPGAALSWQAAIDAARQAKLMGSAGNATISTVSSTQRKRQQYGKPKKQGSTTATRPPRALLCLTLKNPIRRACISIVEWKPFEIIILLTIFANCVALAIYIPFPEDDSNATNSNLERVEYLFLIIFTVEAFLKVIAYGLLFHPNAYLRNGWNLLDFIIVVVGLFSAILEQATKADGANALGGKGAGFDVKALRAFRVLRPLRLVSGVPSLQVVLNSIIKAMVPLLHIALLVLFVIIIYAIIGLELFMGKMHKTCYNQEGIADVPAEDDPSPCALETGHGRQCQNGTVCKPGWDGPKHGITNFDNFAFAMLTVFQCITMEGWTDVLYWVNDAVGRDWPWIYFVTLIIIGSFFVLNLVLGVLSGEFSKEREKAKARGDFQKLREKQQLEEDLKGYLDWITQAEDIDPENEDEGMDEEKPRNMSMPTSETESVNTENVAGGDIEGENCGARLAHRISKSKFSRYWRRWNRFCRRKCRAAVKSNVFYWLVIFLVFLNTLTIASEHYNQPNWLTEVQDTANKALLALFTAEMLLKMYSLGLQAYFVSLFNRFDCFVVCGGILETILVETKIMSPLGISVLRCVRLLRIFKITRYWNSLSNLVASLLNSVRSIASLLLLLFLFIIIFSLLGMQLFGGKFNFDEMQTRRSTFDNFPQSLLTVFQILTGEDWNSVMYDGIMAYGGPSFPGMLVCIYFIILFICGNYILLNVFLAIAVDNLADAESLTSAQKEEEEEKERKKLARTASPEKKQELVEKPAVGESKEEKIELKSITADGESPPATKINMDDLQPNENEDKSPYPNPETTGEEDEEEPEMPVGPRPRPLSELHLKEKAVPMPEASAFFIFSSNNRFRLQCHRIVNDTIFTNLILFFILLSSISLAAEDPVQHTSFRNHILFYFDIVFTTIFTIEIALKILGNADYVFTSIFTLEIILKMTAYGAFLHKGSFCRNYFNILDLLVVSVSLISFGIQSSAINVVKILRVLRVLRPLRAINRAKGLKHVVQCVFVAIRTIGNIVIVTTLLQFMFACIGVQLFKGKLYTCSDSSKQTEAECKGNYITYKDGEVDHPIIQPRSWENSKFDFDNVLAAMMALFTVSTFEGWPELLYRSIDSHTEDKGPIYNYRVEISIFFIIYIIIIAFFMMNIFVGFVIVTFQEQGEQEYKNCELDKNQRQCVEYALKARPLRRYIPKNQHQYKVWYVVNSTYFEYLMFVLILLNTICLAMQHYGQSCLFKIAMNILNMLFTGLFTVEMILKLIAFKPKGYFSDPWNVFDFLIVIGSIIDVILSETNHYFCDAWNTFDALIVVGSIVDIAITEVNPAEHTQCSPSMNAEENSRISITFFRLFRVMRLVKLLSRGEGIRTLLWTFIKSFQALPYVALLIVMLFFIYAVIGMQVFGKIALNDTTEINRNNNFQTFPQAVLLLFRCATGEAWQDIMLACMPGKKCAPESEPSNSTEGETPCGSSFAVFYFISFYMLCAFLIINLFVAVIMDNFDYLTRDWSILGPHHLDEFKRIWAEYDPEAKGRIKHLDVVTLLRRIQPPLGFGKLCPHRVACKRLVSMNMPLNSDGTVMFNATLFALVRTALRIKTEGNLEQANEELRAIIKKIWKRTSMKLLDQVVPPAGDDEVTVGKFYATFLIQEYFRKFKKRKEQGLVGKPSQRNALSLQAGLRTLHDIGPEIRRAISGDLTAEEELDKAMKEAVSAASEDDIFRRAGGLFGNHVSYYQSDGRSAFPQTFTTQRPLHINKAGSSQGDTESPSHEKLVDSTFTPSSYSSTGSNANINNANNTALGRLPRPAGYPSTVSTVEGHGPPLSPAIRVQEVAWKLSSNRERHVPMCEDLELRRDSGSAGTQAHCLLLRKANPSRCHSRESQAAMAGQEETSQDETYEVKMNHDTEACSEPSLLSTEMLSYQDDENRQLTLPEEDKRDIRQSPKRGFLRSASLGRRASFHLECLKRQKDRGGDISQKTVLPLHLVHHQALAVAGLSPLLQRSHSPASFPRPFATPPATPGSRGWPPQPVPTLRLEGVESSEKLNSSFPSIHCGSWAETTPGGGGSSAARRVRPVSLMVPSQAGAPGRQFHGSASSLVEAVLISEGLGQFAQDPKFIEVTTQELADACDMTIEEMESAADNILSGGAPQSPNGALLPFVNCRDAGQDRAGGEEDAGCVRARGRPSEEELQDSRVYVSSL

[10] = Aqueous solubility of the compound at pH 7; format: physicochemical; conditions: aqueous medium
[11] = target: Sodium channel protein type 5 subunit alpha (Homo sapiens, UniProt Q14524); assay: Inhibition of Nav1.5 (unknown origin)
Chain of Sodium channel protein type 5 subunit alpha (Q14524 whole entry): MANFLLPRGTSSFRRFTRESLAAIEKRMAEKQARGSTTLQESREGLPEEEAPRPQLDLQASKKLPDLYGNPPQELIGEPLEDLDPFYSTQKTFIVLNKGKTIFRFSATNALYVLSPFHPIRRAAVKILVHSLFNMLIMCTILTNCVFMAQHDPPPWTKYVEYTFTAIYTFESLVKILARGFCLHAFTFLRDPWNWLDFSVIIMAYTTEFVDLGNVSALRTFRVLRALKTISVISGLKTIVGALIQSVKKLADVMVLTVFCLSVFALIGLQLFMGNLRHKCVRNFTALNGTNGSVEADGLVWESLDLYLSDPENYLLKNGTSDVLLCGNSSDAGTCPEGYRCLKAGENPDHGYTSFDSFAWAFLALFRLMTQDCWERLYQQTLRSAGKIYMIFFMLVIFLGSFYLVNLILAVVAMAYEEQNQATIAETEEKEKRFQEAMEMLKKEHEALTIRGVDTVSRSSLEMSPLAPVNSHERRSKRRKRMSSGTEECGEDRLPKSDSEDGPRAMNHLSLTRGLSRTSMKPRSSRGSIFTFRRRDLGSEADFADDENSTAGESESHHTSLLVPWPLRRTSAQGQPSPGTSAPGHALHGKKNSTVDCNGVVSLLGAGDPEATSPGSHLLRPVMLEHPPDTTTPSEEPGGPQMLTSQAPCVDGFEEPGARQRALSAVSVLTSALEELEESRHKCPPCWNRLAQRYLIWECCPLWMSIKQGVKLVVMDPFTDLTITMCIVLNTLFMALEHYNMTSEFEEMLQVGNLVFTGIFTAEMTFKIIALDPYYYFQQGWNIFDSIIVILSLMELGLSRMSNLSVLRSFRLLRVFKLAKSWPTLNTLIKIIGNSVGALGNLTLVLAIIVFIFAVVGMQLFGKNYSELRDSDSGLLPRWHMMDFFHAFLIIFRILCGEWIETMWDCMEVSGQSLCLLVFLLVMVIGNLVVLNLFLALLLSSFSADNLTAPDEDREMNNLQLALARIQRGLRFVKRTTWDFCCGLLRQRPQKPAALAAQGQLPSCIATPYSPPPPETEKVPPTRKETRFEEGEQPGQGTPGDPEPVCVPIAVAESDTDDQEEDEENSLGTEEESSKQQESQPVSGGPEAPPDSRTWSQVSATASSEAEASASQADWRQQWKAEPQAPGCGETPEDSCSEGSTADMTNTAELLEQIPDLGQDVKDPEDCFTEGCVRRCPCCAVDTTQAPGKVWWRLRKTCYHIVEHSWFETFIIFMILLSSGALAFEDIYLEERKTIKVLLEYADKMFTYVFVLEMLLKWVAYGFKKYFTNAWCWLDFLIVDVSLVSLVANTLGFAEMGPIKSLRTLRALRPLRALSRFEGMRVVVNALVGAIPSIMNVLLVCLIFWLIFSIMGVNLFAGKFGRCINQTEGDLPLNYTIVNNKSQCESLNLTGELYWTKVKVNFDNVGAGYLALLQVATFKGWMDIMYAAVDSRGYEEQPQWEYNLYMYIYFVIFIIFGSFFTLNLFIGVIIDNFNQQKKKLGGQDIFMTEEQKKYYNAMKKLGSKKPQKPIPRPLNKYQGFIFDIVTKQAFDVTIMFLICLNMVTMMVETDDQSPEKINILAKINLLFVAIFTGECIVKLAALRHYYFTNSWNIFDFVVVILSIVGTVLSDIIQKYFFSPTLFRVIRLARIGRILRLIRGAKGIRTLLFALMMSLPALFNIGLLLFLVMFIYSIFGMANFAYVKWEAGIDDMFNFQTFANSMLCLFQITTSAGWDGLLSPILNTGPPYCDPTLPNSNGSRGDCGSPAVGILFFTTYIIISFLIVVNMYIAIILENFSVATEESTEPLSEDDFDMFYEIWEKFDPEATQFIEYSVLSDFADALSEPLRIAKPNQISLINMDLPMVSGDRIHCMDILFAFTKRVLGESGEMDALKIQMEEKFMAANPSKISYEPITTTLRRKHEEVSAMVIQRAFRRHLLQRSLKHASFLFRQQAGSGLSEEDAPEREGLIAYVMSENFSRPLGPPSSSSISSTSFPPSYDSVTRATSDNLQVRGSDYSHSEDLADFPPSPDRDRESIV

[12] = Aqueous solubility of the compound at pH 2; format: physicochemical; conditions: aqueous medium
[13] = Half life in rhesus monkey at 2 mg/kg, iv or 10 mg/kg, po; format: ADME, organism-based, Macaca mulatta; conditions: in vivo
[14] = target: T2, Orexin/Hypocretin receptor type 1 (Homo sapiens); assay: Binding affinity to OX1 receptor (unknown origin) assessed as dissociation rate constant
[15] = Oral bioavailability in dog at 3 mg/kg; format: ADME, organism-based, Canis lupus familiaris; conditions: in vivo
[16] = Protein binding in rhesus monkey plasma; format: ADME, cell-free, Macaca mulatta; conditions: read-out: PPB (converted)
[17] = Clearance in dog at 0.5 mg/kg, iv or 10 mg/kg, po; format: ADME, organism-based, Canis lupus familiaris; conditions: in vivo
[18] = Half life in rat at 2 mg/kg, iv or 10 mg/kg, po; format: ADME, organism-based; conditions: in vivo
[19] = target: T3, Orexin/Hypocretin receptor type 1 (Homo sapiens, UniProt O43613); assay: Binding affinity to OX1 receptor (unknown origin)
T3 sequence (O43613 whole entry): T2 sequence (whole entry)

[20] = Selectivity index, ratio of IC50 for human OX1 receptor to IC50 for rat OX1 receptor
[21] = Intrinsic clearance in rhesus monkey liver microsomes; format: ADME, Macaca mulatta; conditions: read-out: CLH
[22] = target: T2, Orexin/Hypocretin receptor type 1 (Homo sapiens); assay: Binding affinity to OX1 receptor (unknown origin) assessed as association rate constant
Rattus norvegicus = organism: Rattus norvegicus; assay: Selectivity index, ratio of IC50 for rat OX2 receptor to IC50 for rat OX1 receptor
[23] = Protein binding in dog plasma; format: ADME, cell-free, Canis lupus familiaris; conditions: read-out: PPB (converted)
[24] = Half life in dog at 0.5 mg/kg, iv or 10 mg/kg, po; format: ADME, organism-based, Canis lupus familiaris; conditions: in vivo
[25] = Protein binding in human plasma; format: ADME, cell-free; conditions: read-out: PPB (converted)
[26] = Antagonist activity at human OX1 receptor Ile408-Val mutant expressed on CHO cell membrane assessed as inhibition of Ala-6,12 orexin-A-induced calcium increase preincubated for 5 mins prior to Ala-6,12 orexin-A addition measured at 1 sec intervals for 1 min by Fluo-4AM dye-based FLIPR assay
[27] = Intrinsic clearance in dog liver microsomes; format: ADME, Canis lupus familiaris; conditions: read-out: CLH
[28] = Clearance in rhesus monkey at 2 mg/kg, iv or 10 mg/kg, po; format: ADME, organism-based, Macaca mulatta; conditions: in vivo
Orexin receptor type 2 [29] = target: T4, Orexin receptor type 2 (Rattus norvegicus, UniProt P56719); format: functional
T4 sequence (P56719 whole entry): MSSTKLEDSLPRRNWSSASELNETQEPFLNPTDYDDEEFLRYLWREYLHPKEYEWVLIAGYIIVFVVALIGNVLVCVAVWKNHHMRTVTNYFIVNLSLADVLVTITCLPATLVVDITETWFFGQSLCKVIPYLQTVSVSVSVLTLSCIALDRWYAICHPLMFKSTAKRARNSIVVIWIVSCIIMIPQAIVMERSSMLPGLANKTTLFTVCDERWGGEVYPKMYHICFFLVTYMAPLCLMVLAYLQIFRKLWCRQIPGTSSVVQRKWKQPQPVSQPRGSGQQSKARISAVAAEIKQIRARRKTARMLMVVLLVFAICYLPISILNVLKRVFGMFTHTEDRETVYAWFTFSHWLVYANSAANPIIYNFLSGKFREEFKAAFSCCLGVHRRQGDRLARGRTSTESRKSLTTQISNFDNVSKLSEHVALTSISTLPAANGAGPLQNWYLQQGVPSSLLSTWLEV
Description: Antagonist activity at rat OX2 receptor assessed as inhibition of Ala-6,12 orexin-A-induced calcium increase preincubated for 5 mins prior to Ala-6,12 orexin-A addition measured at 1 sec intervals for 1 min by Fluo-4AM dye-based FLIPR assay

[30] = Apparent permeability of the compound; format: ADME; conditions: not told
[31] = Oral bioavailability in rhesus monkey at 10 mg/kg; format: ADME, organism-based, Macaca mulatta; conditions: in vivo
[32] = Protein binding in rat plasma; format: ADME, cell-free; conditions: read-out: PPB (converted)
[33] = target: T5, Orexin/Hypocretin receptor type 1 (Rattus norvegicus, UniProt P56718); assay: Antagonist activity at rat OX1 receptor assessed as inhibition of Ala-6,12 orexin-A-induced calcium increase preincubated for 5 mins prior to Ala-6,12 orexin-A addition measured at 1 sec intervals for 1 min by Fluo-4AM dye-based FLIPR assay; format: functional
T5 sequence (P56718 whole entry): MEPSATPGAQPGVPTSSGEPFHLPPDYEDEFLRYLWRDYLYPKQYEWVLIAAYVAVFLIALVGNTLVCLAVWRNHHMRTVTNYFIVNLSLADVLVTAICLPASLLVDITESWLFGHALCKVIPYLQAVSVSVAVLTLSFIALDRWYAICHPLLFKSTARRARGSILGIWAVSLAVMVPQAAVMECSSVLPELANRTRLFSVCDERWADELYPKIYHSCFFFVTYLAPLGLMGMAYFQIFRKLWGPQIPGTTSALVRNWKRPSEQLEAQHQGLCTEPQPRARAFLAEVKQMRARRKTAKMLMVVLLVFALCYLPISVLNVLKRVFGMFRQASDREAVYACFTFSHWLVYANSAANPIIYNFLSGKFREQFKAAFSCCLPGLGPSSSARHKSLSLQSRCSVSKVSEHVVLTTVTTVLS

[34] = Intrinsic clearance in human liver microsomes; format: ADME; conditions: read-out: CLH
Orexin receptor type 2 [35] = target: T1, Orexin receptor type 2; format: functional, cell-based, CHO
Description: Antagonist activity at human OX2 receptor expressed on CHO cell membrane assessed as inhibition of Ala-6,12 orexin-A-induced calcium increase preincubated for 5 mins prior to Ala-6,12 orexin-A addition measured at 1 sec intervals for 1 min by Fluo-4AM dye-based FLIPR assay

SMILES: O=C(c1ccccc1-n1cccn1)N1CCC(F)(F)[C@@H](Oc2ccc3ccccc3n2)C1
Ratio Ki (CHO): 564
Ki (Orexin receptor type 2 [5]): 271 nM
Ki [6]: 0.48 nM
Ratio Ki [8]: 2

SMILES: O=C(c1nccc2[nH]cnc12)N1CCC(F)(F)[C@@H](Oc2ccc3ccccc3n2)C1
half-life [13]: 2 h
K [14]: 0.21 s⁻¹
CLint scaled [1]: 267 mL/min/kg
Ratio Ki (CHO): 411
bioavailability [15]: 63%
fraction unbound [16]: 0.16
clearance [17]: 12 mL/min/kg
bioavailability [2]: 22%
half-life [18]: 3.2 h
Kd [19]: 4.74 nM
Ratio IC50 [20]: 3 to 4
clearance [3]: 45 mL/min/kg
Drug metabolism [4]: Metabolite_Notdetected
CLint scaled [21]: 189 mL/min/kg
K [22]: 4.43 ×10⁷ /M/s
Ratio IC50 (Rattus norvegicus): > 625
fraction unbound [23]: 0.2
solubility [10]: 182 µM (≈ 74.5 µg/mL)
Ki (Orexin receptor type 2 [5]): 2140 nM
half-life [24]: 1 h
Ki [6]: 5.2 nM
fraction unbound [25]: 0.14
IC50 [26]: 58 nM
CLint scaled [27]: < 75 mL/min/kg
clearance [28]: 25 mL/min/kg
IC50 (Orexin receptor type 2 [29]): > 10000 nM
Papp [30]: 33 ×10⁻⁶ cm/s
bioavailability [31]: 16%
fraction unbound [32]: 0.17
solubility [12]: 192 µM (≈ 78.6 µg/mL)
IC50 [33]: 16 nM
CLint scaled [34]: 55 mL/min/kg
IC50 (Orexin receptor type 2 [35]): > 10000 nM

The next lines start with results.

CLint scaled [1]: 1200 mL/min/kg
bioavailability [2]: < 1%
clearance [3]: 81 mL/min/kg
Drug metabolism [4]: Metabolite_Detected
Ki (Orexin receptor type 2 [5]): 4310 nM
solubility [7]: Soluble
SMILES: O=C(c1cccc(-n2ccnn2)c1)N1CCC(F)(F)[C@@H](Oc2ccc3ccccc3n2)C1
Ratio Ki (CHO): 1230
Ki [6]: 3.5 nM

solubility [10]: > 150 µM
Ki (Orexin receptor type 2 [5]): 521 nM
solubility [12]: > 150 µM
SMILES: O=C(c1nccc2[nH]ccc12)N1CCC(F)(F)[C@@H](Oc2ccc3ccccc3n2)C1
Ratio Ki (CHO): 325
inhibition (INH) [9]: Active
Ki [6]: 1.6 nM
inhibition (INH) [11]: Active

Ratio IC50 (Rattus norvegicus): 119
fraction unbound [23]: < 0.01
solubility [10]: < 26 µM
fraction unbound [25]: < 0.01
IC50 [26]: 89 nM
IC50 (Orexin receptor type 2 [29]): 1310 to 4180 nM
solubility [12]: < 26 µM
IC50 [33]: 11 nM
IC50 (Orexin receptor type 2 [35]): 4180 nM
SMILES: O=C(c1ccccc1-n1nccn1)N1CCC(F)(F)[C@@H](Oc2ccc3ccccc3n2)C1
Ratio Ki (CHO): 400 to 401
INH [9]: 3.8 µM
Ki [6]: 1.3 nM
INH [11]: 6.7 µM

From ChEMBL document CHEMBL3867477 (Bioorg Med Chem Lett, 2016)
